Experimental data reported in US8841233B2, “Herbicidal compositions comprising 4-amino-3-chloro-5-fluoro-6-(4-chloro-2-fluoro-3-methoxyphenyl) pyridine-2-carboxylic acid or a derivative thereof and 4-hydroxyphenyl-pyruvate dioxygenase (HPPD) inhibitors” (Dow Agrosciences LLC, priority 2012, dated 2014).

What was measured:
Assay in all cases: Pre-emergence soil-applied weed control, greenhouse (Example III)
[1] = test system: SETVI; format: in vivo, Setaria viridis (L.) Beauv.
Source text: (§1) Evaluation of Pre-emergence Soil-Applied Herbicidal Mixtures for Weed Control
(§2) Seeds or nutlets of the desired test plant species were planted in a soil matrix prepared by mixing a loam soil (32 percent silt, 23 percent clay, and 45 percent sand, with a pH of about 6.5 and an organic matter content of about 1.9 percent) and calcareous grit in an 80 to 20 ratio. The soil matrix was contained in plastic pots with a volume of 1 quart and a surface area of 83.6 square centimeters (cm^2).
(§3) Treatments consisted of the benzyl ester of 4-amino-3-chloro-5-fluoro-6-(4-chloro-2-fluoro-3-methoxy-phenyl)pyridine-2-carboxylic acid (compound A) formulated as an SC (suspension concentrate) and various herbicidal components alone and in combination. Forms of compound A were applied on an acid equivalent basis.
(§4) Other herbicidal components were applied on an acid equivalent or active ingredient basis and included the 4-hydroxyphenyl pyruvate dioxygenase (HPPD)-inhibiting herbicide, isoxaflutole, formulated as Balance Pro®.
(§5) Treatment requirements were calculated based upon the rates being tested, the concentration of active ingredient or acid equivalent in the formulation, and a 12 mL application volume at a rate of 187 L/ha.
(§6) For treatments comprised of formulated compounds, measured amounts of compounds were placed individually in 25 mL glass vials and diluted in a volume of 1.25% (v/v) Agri-Dex® crop oil concentrate (COC) to obtain 12× stock solutions. […] Application solutions were prepared by adding an appropriate amount of each stock solution (e.g., 1 mL) and diluted to the appropriate final concentrations with the addition of 10 mL of an aqueous mixture of 1.25% (v/v) COC so that the final spray solutions contained 1.25% (v/v) COC.
(§7) All stock solutions and applications solutions were visually inspected for compound compatibility prior to application. Spray solutions were applied to the soil with an overhead Mandel track sprayer equipped with a 8002E nozzles calibrated to deliver 187 L/ha over an application area of 0.503 m^2 at a spray height of 18 inches (46 cm) above average pot height. Control pots were sprayed in the same manner with the solvent blank.
(§8) The treated and control pots were placed in a greenhouse and top watered as needed. When required to ensure good germination and healthy plants, a fungicide treatment and/or other chemical or physical treatment was applied. […] After approximately 4 weeks, the condition of the test plants as compared with that of the untreated plants was determined visually and scored on a scale of 0 to 100 percent where 0 corresponds to no injury or growth inhibition and 100 corresponds to complete kill. […]

[2] = test system: XANST; format: in vivo, Xanthium strumarium L.; conditions: 35 gai/ha
Source text: as §1, §2, §3, §4, §5, §6, §7, §8

[3] = test system: IPOHE; format: in vivo, Ipomoea hederacea (L.) Jacq.; conditions: 35 gai/ha
Source text: as §1, §2, §3, §4, §5, §6, §7, §8

In the case of `CS(=O)(=O)c1cc(C(F)(F)F)ccc1C(=O)c1cnoc1C1CC1` [Isoxaflutole, (5-cyclopropyl-4-isoxazolyl)[2-(methylsulfonyl)-4-(trifluoromethyl)phenyl]methanone, reference compound], the “Visual Weed Control (%) - 32 DAA SETVI Obs” value ([1]; 35 gai/ha) is reported as 50%, the “Visual Weed Control (%) - 32 DAA SETVI Obs” value ([1]; 70 gai/ha) is reported as 93% and the “Visual Weed Control (%) - 32 DAA XANST Obs” value [2] is reported as 75%. The “Visual Weed Control (%) - 32 DAA IPOHE Obs” value [3] was 43%.
